From PubChem BioAssay (NCI)
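How tested: cells in 96-well plates exposed to compound for 48 hours at five concentrations. At the GI50, growth is halved. TGI: concentration producing complete growth inhibition.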

Assays:
Assay in all cases: NCI-60 cell line screen, 48 h
SNB-19 CNS = system: SNB-19 CNS
RPMI-8226 leukemia = system: RPMI-8226 leukemia
MALME-3M melanoma = system: MALME-3M melanoma
A498 renal = system: A498 renal
HS 578T breast = system: HS 578T breast
SF-268 CNS = system: SF-268 CNS
UACC-62 melanoma = system: UACC-62 melanoma
A549 NSCLC = system: A549 NSCLC
SK-MEL-2 melanoma = system: SK-MEL-2 melanoma
MDA-MB-468 breast = system: MDA-MB-468 breast
SF-539 CNS = system: SF-539 CNS
OVCAR-5 ovarian = system: OVCAR-5 ovarian
EKVX NSCLC = system: EKVX NSCLC
OVCAR-3 ovarian = system: OVCAR-3 ovarian
SNB-75 CNS = system: SNB-75 CNS
786-0 renal = system: 786-0 renal
TK-10 renal = system: TK-10 renal
NCI-H23 lung = system: NCI-H23 lung
BT-549 breast = system: BT-549 breast
HCT-15 colon = system: HCT-15 colon
SN12C renal = system: SN12C renal
SW-620 colon = system: SW-620 colon
NCI-H460 lung = system: NCI-H460 lung
OVCAR-8 ovarian = system: OVCAR-8 ovarian
MOLT-4 leukemia = system: MOLT-4 leukemia
COLO 205 colon = system: COLO 205 colon
HCC-2998 colon = system: HCC-2998 colon
CCRF-CEM leukemia = system: CCRF-CEM leukemia
HCT-116 colon = system: HCT-116 colon
K-562 leukemia = system: K-562 leukemia
MDA-MB-435 = system: MDA-MB-435
NCI-H226 lung = system: NCI-H226 lung
MDA-MB-231 breast = system: MDA-MB-231 breast
HOP-92 NSCLC = system: HOP-92 NSCLC
UACC-257 melanoma = system: UACC-257 melanoma
HOP-62 NSCLC = system: HOP-62 NSCLC
RXF 393 renal = system: RXF 393 renal
KM12 colon = system: KM12 colon
U251 CNS = system: U251 CNS
HL-60(TB) leukemia = system: HL-60(TB) leukemia
ACHN renal = system: ACHN renal
SK-OV-3 ovarian = system: SK-OV-3 ovarian
DU-145 prostate = system: DU-145 prostate
LOX IMVI melanoma = system: LOX IMVI melanoma
M14 melanoma = system: M14 melanoma
NCI-H522 lung = system: NCI-H522 lung
NCI/ADR-RES ovarian = system: NCI/ADR-RES ovarian
HT29 colon = system: HT29 colon
T-47D breast = system: T-47D breast
PC-3 prostate = system: PC-3 prostate
SK-MEL-28 melanoma = system: SK-MEL-28 melanoma
SR leukemia = system: SR leukemia
SK-MEL-5 melanoma = system: SK-MEL-5 melanoma
IGROV1 ovarian = system: IGROV1 ovarian
UO-31 renal = system: UO-31 renal
MCF7 breast = system: MCF7 breast
SF-295 CNS = system: SF-295 CNS
CAKI-1 renal = system: CAKI-1 renal
OVCAR-4 ovarian = system: OVCAR-4 ovarian

CC(=O)Nc1nc(-c2ccc(N3CCN(C)CC3)c(NS(=O)(=O)c3cccc4c(N(C)C)cccc34)c2)cs1
GI50 (SNB-19 CNS): 12.2 µM | TGI (SNB-19 CNS): 23.5 µM | GI50 (RPMI-8226 leukemia): 8.05 µM | TGI (RPMI-8226 leukemia): 53.6 µM | GI50 (MALME-3M melanoma): 11.4 µM | TGI (MALME-3M melanoma): 22.4 µM | GI50 (A498 renal): 13.1 µM | TGI (A498 renal): 24.5 µM | GI50 (HS 578T breast): 11.6 µM | TGI (HS 578T breast): 43.6 µM | GI50 (SF-268 CNS): 12.4 µM | TGI (SF-268 CNS): 25.3 µM | GI50 (UACC-62 melanoma): 12.8 µM | TGI (UACC-62 melanoma): 24.1 µM | GI50 (A549 NSCLC): 14.2 µM | TGI (A549 NSCLC): 30.2 µM | GI50 (SK-MEL-2 melanoma): 13.6 µM | TGI (SK-MEL-2 melanoma): 26.2 µM | GI50 (MDA-MB-468 breast): 10.7 µM | TGI (MDA-MB-468 breast): 22.3 µM | GI50 (SF-539 CNS): 9.78 µM | TGI (SF-539 CNS): 20.1 µM | GI50 (OVCAR-5 ovarian): 12.6 µM | TGI (OVCAR-5 ovarian): 23.9 µM | GI50 (EKVX NSCLC): 13.1 µM | TGI (EKVX NSCLC): 25.7 µM | GI50 (OVCAR-3 ovarian): 11.5 µM | TGI (OVCAR-3 ovarian): 23.3 µM | GI50 (SNB-75 CNS): 9.24 µM | TGI (SNB-75 CNS): 19.7 µM | GI50 (786-0 renal): 11.7 µM | TGI (786-0 renal): 24.6 µM | GI50 (TK-10 renal): 16.4 µM | TGI (TK-10 renal): 29.1 µM | GI50 (NCI-H23 lung): 11.3 µM | TGI (NCI-H23 lung): 23.6 µM | GI50 (BT-549 breast): 11.3 µM | TGI (BT-549 breast): 23.5 µM | GI50 (HCT-15 colon): 12.6 µM | TGI (HCT-15 colon): 25.4 µM | GI50 (SN12C renal): 12.1 µM | TGI (SN12C renal): 23.7 µM | GI50 (SW-620 colon): 13.1 µM | TGI (SW-620 colon): 25.4 µM | GI50 (NCI-H460 lung): 14.4 µM | TGI (NCI-H460 lung): 29 µM | GI50 (OVCAR-8 ovarian): 16.9 µM | TGI (OVCAR-8 ovarian): 45.6 µM | GI50 (MOLT-4 leukemia): 13.3 µM | TGI (MOLT-4 leukemia): 37.9 µM | GI50 (COLO 205 colon): 12.5 µM | TGI (COLO 205 colon): 27.9 µM | GI50 (HCC-2998 colon): 12.4 µM | TGI (HCC-2998 colon): 24 µM | GI50 (CCRF-CEM leukemia): 13.2 µM | TGI (CCRF-CEM leukemia): 38.2 µM | GI50 (HCT-116 colon): 12.3 µM | TGI (HCT-116 colon): 28.8 µM | GI50 (K-562 leukemia): 15.9 µM | TGI (K-562 leukemia): 85.5 µM | GI50 (MDA-MB-435): 13 µM | TGI (MDA-MB-435): 25.4 µM | GI50 (NCI-H226 lung): 13.3 µM | TGI (NCI-H226 lung): 28.3 µM | GI50 (MDA-MB-231 breast): 14.4 µM | TGI (MDA-MB-231 breast): 26.6 µM | GI50 (HOP-92 NSCLC): 9.15 µM | TGI (HOP-92 NSCLC): 20.4 µM | GI50 (UACC-257 melanoma): 13.1 µM | TGI (UACC-257 melanoma): 25.8 µM | GI50 (HOP-62 NSCLC): 12.6 µM | TGI (HOP-62 NSCLC): 25.8 µM | GI50 (RXF 393 renal): 9.16 µM | TGI (RXF 393 renal): 20.3 µM | GI50 (KM12 colon): 14.4 µM | TGI (KM12 colon): 28.4 µM | GI50 (U251 CNS): 11.1 µM | TGI (U251 CNS): 23.3 µM | GI50 (HL-60(TB) leukemia): 9.4 µM | TGI (HL-60(TB) leukemia): 24.9 µM | GI50 (ACHN renal): 13.7 µM | TGI (ACHN renal): 25.3 µM | GI50 (SK-OV-3 ovarian): 13.2 µM | TGI (SK-OV-3 ovarian): 26.8 µM | GI50 (DU-145 prostate): 14 µM | TGI (DU-145 prostate): 26 µM | GI50 (LOX IMVI melanoma): 10.7 µM | TGI (LOX IMVI melanoma): 21.9 µM | GI50 (M14 melanoma): 12.8 µM | TGI (M14 melanoma): 25.8 µM | GI50 (NCI-H522 lung): 12.6 µM | TGI (NCI-H522 lung): 25.6 µM | GI50 (NCI/ADR-RES ovarian): 16.6 µM | TGI (NCI/ADR-RES ovarian): 37.1 µM | GI50 (HT29 colon): 8.91 µM | TGI (HT29 colon): 21.3 µM | GI50 (T-47D breast): 12 µM | TGI (T-47D breast): 28.9 µM | GI50 (PC-3 prostate): 11.2 µM | TGI (PC-3 prostate): 28.1 µM | GI50 (SK-MEL-28 melanoma): 10.5 µM | TGI (SK-MEL-28 melanoma): 21.1 µM | GI50 (SR leukemia): 3.27 µM | TGI (SR leukemia): 18.2 µM | GI50 (SK-MEL-5 melanoma): 11.9 µM | TGI (SK-MEL-5 melanoma): 23.2 µM | GI50 (IGROV1 ovarian): 14.2 µM | TGI (IGROV1 ovarian): 26.3 µM | GI50 (UO-31 renal): 10.9 µM | TGI (UO-31 renal): 21.7 µM | GI50 (MCF7 breast): 10.8 µM | TGI (MCF7 breast): 24 µM | GI50 (SF-295 CNS): 7.22 µM | TGI (SF-295 CNS): 18.3 µM | GI50 (CAKI-1 renal): 14 µM | TGI (CAKI-1 renal): 26.2 µM | GI50 (OVCAR-4 ovarian): 13.6 µM | TGI (OVCAR-4 ovarian): 28.2 µM
